# In ChEMBL document CHEMBL1153704, “Imidazo[1,2-a]pyrazine diaryl ureas: inhibitors of the receptor tyrosine kinase EphB4” (Bioorg Med Chem Lett, 2009):
# Target: T1, Ephrin type-B receptor 4 (Homo sapiens) (UniProt P54760)
# T1 sequence (whole entry): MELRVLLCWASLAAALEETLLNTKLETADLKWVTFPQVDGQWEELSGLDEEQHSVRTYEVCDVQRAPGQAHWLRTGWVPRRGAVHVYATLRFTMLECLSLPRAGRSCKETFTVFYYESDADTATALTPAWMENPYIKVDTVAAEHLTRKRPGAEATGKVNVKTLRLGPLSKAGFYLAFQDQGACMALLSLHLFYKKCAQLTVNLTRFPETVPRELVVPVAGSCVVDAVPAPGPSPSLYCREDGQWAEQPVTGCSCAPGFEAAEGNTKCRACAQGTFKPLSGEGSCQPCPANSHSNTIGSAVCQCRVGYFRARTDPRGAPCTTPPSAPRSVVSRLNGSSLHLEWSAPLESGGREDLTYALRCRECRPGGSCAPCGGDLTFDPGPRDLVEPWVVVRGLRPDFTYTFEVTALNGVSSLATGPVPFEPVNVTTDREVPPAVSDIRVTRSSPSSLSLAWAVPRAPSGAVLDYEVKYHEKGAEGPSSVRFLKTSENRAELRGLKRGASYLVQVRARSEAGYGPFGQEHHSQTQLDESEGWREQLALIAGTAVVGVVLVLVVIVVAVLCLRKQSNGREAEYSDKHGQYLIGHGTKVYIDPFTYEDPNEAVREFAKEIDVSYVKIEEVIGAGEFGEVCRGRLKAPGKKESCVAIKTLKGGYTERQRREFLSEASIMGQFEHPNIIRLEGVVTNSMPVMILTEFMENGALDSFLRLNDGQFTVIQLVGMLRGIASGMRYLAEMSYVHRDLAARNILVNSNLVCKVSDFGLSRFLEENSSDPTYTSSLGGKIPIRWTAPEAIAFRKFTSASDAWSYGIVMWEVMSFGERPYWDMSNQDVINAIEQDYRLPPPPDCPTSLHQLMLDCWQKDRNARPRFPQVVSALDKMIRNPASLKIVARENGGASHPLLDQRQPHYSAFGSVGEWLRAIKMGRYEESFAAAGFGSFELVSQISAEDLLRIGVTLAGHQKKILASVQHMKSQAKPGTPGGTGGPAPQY
# Assay: Inhibition of EphB4 at 1 uM after 1 hr
row,Compound,inhibition [%]
1,O=C(Nc1ccccc1)Nc1cccc(-c2cn3ccnc3c(NCc3ccncc3)n2)c1,10
2,COc1ccc(C(F)(F)F)cc1NC(=O)CNc1cccc(-c2cn3ccnc3c(NCc3ccncc3)n2)c1,2.9
3,O=C(Nc1cccc(-c2cn3ccnc3c(NCc3ccncc3)n2)c1)Nc1ccccc1C(F)(F)F,41
4,Cc1ccccc1NC(=O)Nc1cccc(-c2cn3ccnc3c(NCc3ccncc3)n2)c1,30
5,O=C(Nc1cccc(-c2cn3ccnc3c(NCc3ccncc3)n2)c1)Nc1ccccc1F,22
6,O=C(Nc1ccc(C(F)(F)F)cc1)Nc1cccc(-c2cn3ccnc3c(NCc3ccncc3)n2)c1,10
7,O=C(Nc1ccc(Br)cc1)Nc1cccc(-c2cn3ccnc3c(NCc3ccncc3)n2)c1,22
8,O=C(Nc1cccc(-c2cn3ccnc3c(Nc3cccnc3)n2)c1)Nc1cccc(C(F)(F)F)c1,1
9,COc1ccccc1NC(=O)Nc1cccc(-c2cn3ccnc3c(NCc3ccncc3)n2)c1,54
10,CSc1ccccc1NC(=O)Nc1cccc(-c2cn3ccnc3c(NCc3ccncc3)n2)c1,63
11,O=C(Nc1cccc(F)c1)Nc1cccc(-c2cn3ccnc3c(NCc3ccncc3)n2)c1,47
12,COc1ccc(NC(=O)Nc2cccc(-c3cn4ccnc4c(NCc4ccncc4)n3)c2)cc1,10
13,CCc1ccc(NC(=O)Nc2cccc(-c3cn4ccnc4c(NCc4ccncc4)n3)c2)cc1,10
14,O=C(Nc1cccc(-c2cn3ccnc3c(NCc3ccncc3)n2)c1)Nc1ccccc1Oc1ccccc1,22

# Target: T2, Angiopoietin-1 receptor (Homo sapiens, UniProt Q02763)
# T2 sequence (Q02763 whole entry): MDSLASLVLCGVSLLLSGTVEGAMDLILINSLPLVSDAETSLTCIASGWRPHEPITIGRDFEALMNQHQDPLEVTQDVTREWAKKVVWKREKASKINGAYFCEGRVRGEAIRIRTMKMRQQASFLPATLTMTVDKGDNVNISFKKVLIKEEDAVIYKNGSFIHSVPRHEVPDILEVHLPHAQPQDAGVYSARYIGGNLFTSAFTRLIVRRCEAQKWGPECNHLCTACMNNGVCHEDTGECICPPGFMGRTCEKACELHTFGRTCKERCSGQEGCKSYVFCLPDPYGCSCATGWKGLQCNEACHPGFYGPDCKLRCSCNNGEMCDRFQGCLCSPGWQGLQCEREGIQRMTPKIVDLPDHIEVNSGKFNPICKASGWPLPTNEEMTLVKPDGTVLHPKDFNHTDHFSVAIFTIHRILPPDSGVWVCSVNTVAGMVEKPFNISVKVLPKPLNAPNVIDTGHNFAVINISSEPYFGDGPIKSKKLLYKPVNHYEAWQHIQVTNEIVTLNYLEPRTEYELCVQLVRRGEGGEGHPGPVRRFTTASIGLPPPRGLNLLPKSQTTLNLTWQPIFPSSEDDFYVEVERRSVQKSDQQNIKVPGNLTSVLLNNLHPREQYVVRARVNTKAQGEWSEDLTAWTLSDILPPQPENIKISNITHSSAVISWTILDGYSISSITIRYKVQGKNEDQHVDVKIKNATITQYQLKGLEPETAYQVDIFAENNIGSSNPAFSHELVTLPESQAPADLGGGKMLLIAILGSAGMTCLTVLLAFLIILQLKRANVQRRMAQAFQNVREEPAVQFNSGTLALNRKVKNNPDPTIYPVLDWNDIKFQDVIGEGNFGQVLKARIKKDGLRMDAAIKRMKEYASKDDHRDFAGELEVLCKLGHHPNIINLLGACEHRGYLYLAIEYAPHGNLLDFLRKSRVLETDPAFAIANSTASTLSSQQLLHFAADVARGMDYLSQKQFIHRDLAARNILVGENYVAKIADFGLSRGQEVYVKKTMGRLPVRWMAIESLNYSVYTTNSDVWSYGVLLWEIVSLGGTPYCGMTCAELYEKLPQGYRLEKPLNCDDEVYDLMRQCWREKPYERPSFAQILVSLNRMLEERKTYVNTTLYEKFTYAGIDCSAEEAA
# Assay: Inhibition of Tie2 after 1 hr
row,Compound,IC50 [nM]
1,O=C(Nc1cccc(-c2cn3ccnc3c(NCc3ccncc3)n2)c1)Nc1cc(C(F)(F)F)ccc1F,37
2,COc1ccc(Br)cc1NC(=O)Nc1cccc(-c2cn3ccnc3c(NCc3ccncc3)n2)c1,75
3,COc1ccc(C(F)(F)F)cc1NC(=O)Nc1cccc(-c2cn3ccnc3c(NCc3ccncc3)n2)c1,33

# Target: T2, Angiopoietin-1 receptor
# Assay: Inhibition of Tie2 autophosphorylation by cell based assay
row,Compound,IC50 [nM]
1,O=C(Nc1cccc(-c2cn3ccnc3c(NCc3ccncc3)n2)c1)Nc1cc(C(F)(F)F)ccc1F,100
2,COc1ccc(Br)cc1NC(=O)Nc1cccc(-c2cn3ccnc3c(NCc3ccncc3)n2)c1,250
3,COc1ccc(C(F)(F)F)cc1NC(=O)Nc1cccc(-c2cn3ccnc3c(NCc3ccncc3)n2)c1,50

# Target: T1, Ephrin type-B receptor 4 (Homo sapiens)
# Assay: Inhibition of EphB4 at 10 uM after 1 hr
row,Compound,inhibition [%]
1,O=C(Nc1cccc(-c2cn3ccnc3c(Nc3ccccc3)n2)c1)Nc1cccc(C(F)(F)F)c1,36
2,O=C(Nc1cccc(-c2cn3ccnc3c(NCc3ccccn3)n2)c1)Nc1cccc(C(F)(F)F)c1,32
3,O=C(Nc1cccc(-c2cn3ccnc3c(Nc3ccncc3)n2)c1)Nc1cccc(C(F)(F)F)c1,32

# Target: T3, Ephrin type-B receptor 4 (Homo sapiens, UniProt P54760)
# T3 sequence (P54760 whole entry): T1 sequence (whole entry)
# Assay: Inhibition of EphB4 after 1 hr
row,Compound,IC50 [nM]
1,O=C(Nc1ccc(F)cc1)Nc1cccc(-c2cn3ccnc3c(NCc3ccncc3)n2)c1,7400
2,O=C(Nc1cccc(-c2cn3ccnc3c(NCc3ccncc3)n2)c1)Nc1ccccc1Br,1700
3,O=C(Nc1cccc(-c2cn3ccnc3c(NCc3ccncc3)n2)c1)Nc1ccc(Cl)c(C(F)(F)F)c1,1200
4,O=C(NCc1cccc(C(F)(F)F)c1)c1cccc(-c2cn3ccnc3c(NCc3ccncc3)n2)c1,11100
5,O=C(Nc1cccc(-c2cn3ccnc3c(NCc3ccncc3)n2)c1)Nc1ccc(Cl)cc1Cl,1900
6,O=C(Nc1cccc(Oc2ccccc2)c1)Nc1cccc(-c2cn3ccnc3c(NCc3ccncc3)n2)c1,10500
7,COc1ccc(C#N)cc1NC(=O)Nc1cccc(-c2cn3ccnc3c(NCc3ccncc3)n2)c1,125
8,CSc1cccc(NC(=O)Nc2cccc(-c3cn4ccnc4c(NCc4ccncc4)n3)c2)c1,1200
9,COc1ccc(Cl)cc1NC(=O)Nc1cccc(-c2cn3ccnc3c(N)n2)c1,5400
10,O=C(Nc1cccc(-c2cn3ccnc3c(NCc3ccccc3)n2)c1)Nc1cccc(C(F)(F)F)c1,50000
11,O=C(Nc1cccc(-c2cn3ccnc3c(NCc3ccncc3)n2)c1)Nc1cccc(Cl)c1Cl,5700
12,COc1cc(OC)c(NC(=O)Nc2cccc(-c3cn4ccnc4c(NCc4ccncc4)n3)c2)cc1Br,206
13,CNc1nc(-c2cccc(NC(=O)Nc3cc(Cl)ccc3OC)c2)cn2ccnc12,5700
14,COc1cc(OC)c(C(F)(F)F)cc1NC(=O)Nc1cccc(-c2cn3ccnc3c(NCc3ccncc3)n2)c1,518
15,O=C(Nc1cccc(-c2cn3ccnc3c(NCc3cccnc3)n2)c1)Nc1cccc(C(F)(F)F)c1,7800
16,O=C(Nc1cccc(-c2cn3ccnc3c(OCc3ccncc3)n2)c1)Nc1cccc(C(F)(F)F)c1,105
17,O=C(Nc1cccc(-c2cn3ccnc3c(NCC3CCNCC3)n2)c1)Nc1cccc(C(F)(F)F)c1,50000
18,Cc1ccc(NC(=O)Nc2cccc(-c3cn4ccnc4c(NCc4ccncc4)n3)c2)cc1,7900
19,O=C(NCc1cccc(-c2cn3ccnc3c(NCc3ccncc3)n2)c1)Nc1cccc(C(F)(F)F)c1,6800
20,COc1ccc(Cl)cc1NC(=O)Nc1cccc(-c2cn3ccnc3c(NCc3ccncc3)n2)c1,77
21,O=C(Nc1ccc(Cl)cc1)Nc1cccc(-c2cn3ccnc3c(NCc3ccncc3)n2)c1,4600
22,O=C(Nc1cccc(-c2cn3ccnc3c(NCc3ccc(C(=O)O)cc3)n2)c1)Nc1cccc(C(F)(F)F)c1,5300
23,COc1cc(OC)c(NC(=O)Nc2cccc(-c3cn4ccnc4c(NCc4ccncc4)n3)c2)cc1Cl,402
24,O=C(Nc1cccc(Br)c1)Nc1cccc(-c2cn3ccnc3c(NCc3ccncc3)n2)c1,213
25,COc1ccc(C)cc1NC(=O)Nc1cccc(-c2cn3ccnc3c(NCc3ccncc3)n2)c1,78

row,Compound,IC50 [nM]
1,COc1cccc(NC(=O)Nc2cccc(-c3cn4ccnc4c(NCc4ccncc4)n3)c2)c1,1700
2,Cc1ccc(C)c(NC(=O)Nc2cccc(-c3cn4ccnc4c(NCc4ccncc4)n3)c2)c1,938
3,Cc1ccc(Cl)cc1NC(=O)Nc1cccc(-c2cn3ccnc3c(NCc3ccncc3)n2)c1,160
4,O=C(Nc1cc(Cl)cc(Cl)c1)Nc1cccc(-c2cn3ccnc3c(NCc3ccncc3)n2)c1,1800
5,Cc1ccc(NC(=O)Nc2cccc(-c3cn4ccnc4c(NCc4ccncc4)n3)c2)cc1C(F)(F)F,810
6,O=C(Nc1cccc(-c2cn3ccnc3c(NCc3ccncc3)n2)c1)Nc1ccc(F)c(C(F)(F)F)c1,850
7,O=C(NCc1cccc(C(F)(F)F)c1)Nc1cccc(-c2cn3ccnc3c(NCc3ccncc3)n2)c1,2100
8,O=C(Nc1cccc(-c2cn3ccnc3c(NCc3ccncc3)n2)c1)Nc1cc(Cl)c(Cl)cc1Cl,517
9,O=C(Nc1ccc(-c2cn3ccnc3c(NCc3ccncc3)n2)cc1)Nc1cccc(C(F)(F)F)c1,50000
10,CCOc1cc(OCC)c(C(F)(F)F)cc1NC(=O)Nc1cccc(-c2cn3ccnc3c(NCc3ccncc3)n2)c1,211
11,O=C(Nc1cccc(-c2cn3ccnc3c(NCc3ccncc3)n2)c1)Nc1cc(C(F)(F)F)ccc1O,37
12,O=C(Nc1cccc(-c2cn3ccnc3c(NCc3ccncc3)n2)c1)c1cccc(C(F)(F)F)c1,744
13,O=C(Nc1cccc(-c2cn3ccnc3c(NCc3ccncc3)n2)c1)Nc1cc(C(F)(F)F)ccc1Cl,66
14,O=C(Cc1cccc(C(F)(F)F)c1)Nc1cccc(-c2cn3ccnc3c(NCc3ccncc3)n2)c1,2400
15,O=C(Nc1cccc(Cl)c1)Nc1cccc(-c2cn3ccnc3c(NCc3ccncc3)n2)c1,165
16,N#Cc1cccc(NC(=O)Nc2cccc(-c3cn4ccnc4c(NCc4ccncc4)n3)c2)c1,1900
17,CN(Cc1ccncc1)c1nc(-c2cccc(NC(=O)Nc3cccc(C(F)(F)F)c3)c2)cn2ccnc12,69
18,Cc1cccc(NC(=O)Nc2cccc(-c3cn4ccnc4c(NCc4ccncc4)n3)c2)c1,300
19,O=C(Nc1cccc(-c2cn3ccnc3c(NCCc3ccncc3)n2)c1)Nc1cccc(C(F)(F)F)c1,158
20,O=C(Nc1cccc(-c2cn3ccnc3c(NCc3ccncc3)n2)c1)Nc1cc(Cl)ccc1Oc1ccccc1,138
21,O=C(Nc1cccc(-c2cn3ccnc3c(NCc3ccncc3)n2)c1)Nc1ccc(Cl)c(Cl)c1,2500
22,O=C(Nc1cccc(-c2cn3ccnc3c(NCc3ccncc3)n2)c1)Nc1c(Cl)cccc1Cl,1000
23,O=C(Nc1cccc(-c2cn3ccnc3c(NCc3ccncc3)n2)c1)Nc1ccccc1Cl,2900
24,O=S(=O)(Nc1cccc(-c2cn3ccnc3c(NCc3ccncc3)n2)c1)c1cccc(C(F)(F)F)c1,50000
25,O=C(Nc1cccc(-c2cn3ccnc3c(NCc3ccncc3)n2)c1)Nc1cc(Cl)ccc1Cl,101
